Measurements published in publication PMC11678491, “Bis-Iridoid Glycosides and Triterpenoids from Kolkwitzia amabilis and Their Potential as Inhibitors of ACC1 and ACL” (Molecules, 2024).
Like-named read-outs stand apart in the source and are kept apart here.

Key:
[1] = target: acetyl CoA carboxylase 1 (ACC1) (Homo sapiens, UniProt Q13085); experiment: ACC1 inhibitory assay (ADP-Glo luminescence); type: biochemical
Description: (§1) The ACC1 and ACL inhibitory activity assay were conducted using ADP-Glo^TM luminescence assay reagents (Promega Biotech Co., Ltd, Beijing, China), which measure ACC1 or ACL activity by quantifying the amount of ADP generated in the enzymatic reaction. […] Reactions were conducted in each well for 30 min at room temperature. Following this, 2.0 μL of ATP was added to each well, and the mixture was incubated for 1 h at room temperature. Negative control wells, which lacked the protein kinase, substrate, and ATP, were also included in the kinase assay. After the enzymatic reaction, 2.5 μL of ADP-Glo reagent was added to each well to terminate the kinase reaction and deplete any unconsumed ATP within 1 h at room temperature. Finally, 5.0 μL of kinase detection reagent was added to each well and incubated for 1 h to convert ADP to ATP. The luminescence signal was measured using a PerkinElmer EnVision reader.

ATP-citrate lyase (ACL) = target: T1, ATP-citrate lyase (ACL) (Homo sapiens, UniProt P53396); experiment: ACL inhibitory assay (ADP-Glo luminescence); type: biochemical
T1 sequence (P53396 1-1101): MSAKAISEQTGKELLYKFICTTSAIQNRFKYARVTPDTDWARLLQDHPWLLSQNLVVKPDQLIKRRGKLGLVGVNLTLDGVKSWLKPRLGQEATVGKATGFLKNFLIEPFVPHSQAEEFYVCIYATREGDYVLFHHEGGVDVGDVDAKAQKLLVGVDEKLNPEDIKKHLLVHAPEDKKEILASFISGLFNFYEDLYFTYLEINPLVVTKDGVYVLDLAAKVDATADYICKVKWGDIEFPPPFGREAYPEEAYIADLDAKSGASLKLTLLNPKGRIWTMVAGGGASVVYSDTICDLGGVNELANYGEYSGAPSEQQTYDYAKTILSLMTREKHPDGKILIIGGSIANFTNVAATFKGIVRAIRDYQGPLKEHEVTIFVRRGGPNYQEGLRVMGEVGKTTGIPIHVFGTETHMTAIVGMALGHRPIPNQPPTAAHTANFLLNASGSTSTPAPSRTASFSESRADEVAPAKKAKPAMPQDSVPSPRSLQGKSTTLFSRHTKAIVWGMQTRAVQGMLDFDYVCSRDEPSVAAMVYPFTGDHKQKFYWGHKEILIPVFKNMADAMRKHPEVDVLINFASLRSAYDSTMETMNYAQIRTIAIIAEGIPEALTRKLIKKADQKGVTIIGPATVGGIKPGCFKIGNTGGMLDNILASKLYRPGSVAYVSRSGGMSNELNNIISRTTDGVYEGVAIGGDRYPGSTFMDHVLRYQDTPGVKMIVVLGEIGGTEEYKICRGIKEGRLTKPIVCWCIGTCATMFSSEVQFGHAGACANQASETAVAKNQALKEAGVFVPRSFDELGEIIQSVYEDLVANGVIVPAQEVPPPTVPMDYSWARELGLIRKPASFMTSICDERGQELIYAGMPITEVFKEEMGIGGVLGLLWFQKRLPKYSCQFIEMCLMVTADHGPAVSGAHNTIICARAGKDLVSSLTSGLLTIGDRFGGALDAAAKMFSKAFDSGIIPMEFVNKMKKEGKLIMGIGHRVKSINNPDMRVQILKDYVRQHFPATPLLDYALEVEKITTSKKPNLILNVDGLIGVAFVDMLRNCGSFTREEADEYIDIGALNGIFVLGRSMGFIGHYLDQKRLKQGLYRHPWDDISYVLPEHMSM
Description: as §1

[2] = Figure 5, mean ± standard deviation (SD) (n = 3), read-out: IC50 (ACC1)
[3] = mean ± SEM of triplicated experiments, read-out: IC50 ACC1
[4] = Figure 5, mean ± standard deviation (SD) (n = 3)
[5] = mean ± SEM of triplicated experiments

| Structure (SMILES) | IC50 [1, 2] [µM] | IC50 [1, 3] [µM] | IC50 (ATP-citrate lyase (ACL); [4]) [µM] | IC50 (ATP-citrate lyase (ACL); [5]) [µM] | IC50 [1] [µM] |
| --- | --- | --- | --- | --- | --- |
| C=C[C@H]1[C@H](O[C@@H]2O[C@H](CO)[C@@H](O)[C@H](O)[C@H]2O)OC=C(C(=O)O[C@H]2C[C@@H]3C(C(=O)OC)=CO[C@@H](O[C@@H]4O[C@H](CO)[C@@H](O)[C@H](OC(=O)/C=C/c5ccc(O)c(O)c5)[C@H]4O)[C@@H]3[C@@H]2C)[C@H]1CC(OC)OC [Compound 2, Amabilioside B] | 9.64 ± 0.99 | 9.6 ± 1 | – | – | – |
| C=C[C@H]1[C@H](O[C@@H]2O[C@H](CO)[C@@H](O)[C@H](O)[C@H]2O)OC=C(C(=O)O[C@H]2C[C@@H]3C(C(=O)OC)=CO[C@@H](O)[C@@H]3[C@@H]2C)[C@H]1CC(OC)OC [Compound 8, lonicejaposide C] | – | > 20 | 3.63 ± 0.91 | 3.6 ± 0.9 | – |
| CC1(C)CC[C@]2(C(=O)O)CC[C@]3(C)C(=CC[C@@H]4[C@@]5(C)CC[C@H](O)[C@@](C)(COC(=O)/C=C/c6ccc(O)cc6)[C@@H]5CC[C@]43C)[C@@H]2C1 [Compound 31, (23E)-coumaroylhederagenin] | – | > 20 | 4.69 ± 1.3 | 4.7 ± 1.3 | – |
| CC(=O)O[C@H]1CC[C@]2(C)[C@H]3CC=C4[C@@H]5[C@@H](C)[C@H](C)CC[C@]5(C(=O)O)CC[C@@]4(C)[C@]3(C)CC[C@H]2C1(C)C [Compound 17, 3β-acetyl-ursolic acid] | 10.3 ± 0.78 | 10.3 ± 0.8 | – | 2 ± 0.5 | – |
| COc1ccccc1[C@H](Cn1c(=O)n(C(C)(C)C(=O)O)c(=O)c2c(C)c(-c3ncco3)sc21)OC1CCOCC1 [ND 630, Firsocostat, reference compound] | – | – | – | – | 0.002 ± 0.0001 |
| COc1ccc(-c2ccccc2)cc1NS(=O)(=O)c1cc(Cl)cc(Cl)c1O [BMS 303141, reference compound] | – | – | – | 0.3 ± 0.1 | – |
